Test results from patent US9187429B2, “Phenyl-tetrahydroisoquinoline derivatives” (Hoffmann-La Roche Inc., priority 2012, dated 2015).

How the values were obtained:
[1] = target: human CYP11B1 (Homo sapiens (Human), UniProt P15538); assay: G-402 cellular enzyme assay, human CYP11B1 (cortisol release); type: cell-based; conditions: G-402 cells expressing human CYP11B1, 1 μM Deoxycortisol
Text: (§1) The expression plasmids contains the ORF for either human/cyno CYP11B1 or CYP11B2 under the control of a suitable promoter (CMV-promoter) and a suitable resistance marker (neomycin). Using standard techniques the expression plasmid is transfected into G-402 cells and these cells are then selected for expressing the given resistance markers. Individual cell-clones are then selected and assessed for displaying the desired enzymatic activity using 11-Deoxycorticosterone (Cyp 11B2) or 11-Deoxycortisol (Cyp 11B1) as a substrate.
(§2) G-402 cells expressing CYP11 constructs were established as described above and maintained in McCoy's 5a Medium Modified, ATCC Catalog No. 30-2007 containing 10% FCS and 400 μg/ml G418 (Geneticin) at 37° C. under an atmosphere of 5% CO2/95% air. […] For assaying enzymatic activity, cells were plated onto 96 well plates and incubated for 16 h. An aliquot of the supernatant is then transferred and analyzed for the concentration of the expected product (Aldosterone for CYP11B2; Cortisol for CYP11B1). The concentrations of these steroids can be determined using HTRF assays from CisBio analyzing either Aldosterone or Cortisol.
(§3) Inhibition of the release of produced steroids can be used as a measure of the respective enzyme inhibition by test compounds added during the cellular enzyme assay. The dose dependent inhibition of enzymatic activity by a compound is calculated by means of plotting added inhibitor concentrations (x-axes) vs. measured steroid/product level (y-axes). The inhibition is then calculated by fitting the following 4-parameter sigmoidal function (Morgan-Mercer-Flodin (MMF) model) to the raw data points using the least squares method:
(§4) [formula] wherein, A is the maximum y value, B is the EC50 factor determined using XLFit, C is the minimum y value and D is the slope value.
(§5) EC50 values for compounds claimed herein were tested with the G402-based assay system described. Cyp 11B2 enzyme activity was tested in presence of 1 μM Deoxycorticosterone and variable amounts of inhibitors; Cyp 11B1 enzyme activity was tested in presence of 1 μM Deoxycortisol and variable amounts of inhibitors.

[2] = target: CYP11B2 (Homo sapiens (Human), UniProt P19099); assay: G-402 cellular enzyme assay, human CYP11B2 (aldosterone release); type: cell-based; conditions: G-402 cells expressing human CYP11B2, 1 μM Deoxycorticosterone
Text: as §1, §2, §3, §4, §5

CYP11B2, sequence (P19099 25-503): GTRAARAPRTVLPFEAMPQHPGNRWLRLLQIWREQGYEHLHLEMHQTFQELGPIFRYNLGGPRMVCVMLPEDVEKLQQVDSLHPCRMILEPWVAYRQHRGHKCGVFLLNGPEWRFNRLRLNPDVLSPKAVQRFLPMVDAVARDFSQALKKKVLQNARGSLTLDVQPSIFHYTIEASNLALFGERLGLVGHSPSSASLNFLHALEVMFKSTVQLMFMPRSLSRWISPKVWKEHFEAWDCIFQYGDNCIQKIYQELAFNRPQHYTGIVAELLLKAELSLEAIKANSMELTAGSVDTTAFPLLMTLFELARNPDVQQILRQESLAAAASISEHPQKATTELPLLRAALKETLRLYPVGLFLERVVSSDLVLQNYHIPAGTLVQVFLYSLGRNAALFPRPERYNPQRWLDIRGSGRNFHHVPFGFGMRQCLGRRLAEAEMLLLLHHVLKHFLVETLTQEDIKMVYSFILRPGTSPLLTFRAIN
human CYP11B1, sequence (P15538 25-503): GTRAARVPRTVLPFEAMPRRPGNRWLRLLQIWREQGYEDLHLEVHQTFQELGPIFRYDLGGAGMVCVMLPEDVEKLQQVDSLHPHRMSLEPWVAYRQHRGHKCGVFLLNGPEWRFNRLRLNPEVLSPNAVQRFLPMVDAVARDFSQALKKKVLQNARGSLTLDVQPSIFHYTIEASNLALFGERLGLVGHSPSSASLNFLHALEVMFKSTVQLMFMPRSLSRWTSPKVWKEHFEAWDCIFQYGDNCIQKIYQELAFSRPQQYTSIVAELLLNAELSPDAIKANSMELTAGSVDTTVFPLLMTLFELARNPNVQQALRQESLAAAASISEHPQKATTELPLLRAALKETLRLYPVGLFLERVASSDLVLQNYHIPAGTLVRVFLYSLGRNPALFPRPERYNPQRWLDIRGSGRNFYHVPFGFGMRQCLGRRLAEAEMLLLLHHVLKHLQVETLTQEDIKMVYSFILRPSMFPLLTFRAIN

SMILES	EC50 [1]	EC50 [2]
N#Cc1ccc(-c2cncc3c2CCCC3N)cc1 (racemic) [Example 1, (rac)-4-(8-Amino-5,6,7,8-tetrahydroisoquinolin-4-yl)benzonitrile]	173 nM	42 nM
CCS(=O)(=O)NC1CCCc2c(-c3ccc(C#N)cc3)cncc21 (racemic) [Example 2, (rac)-N-(4-(4-Cyanophenyl)-5,6,7,8-tetrahydroisoquinolin-8-yl)ethanesulfonamide]	1090 nM	207 nM
CCCNS(=O)(=O)NC1CCCc2c(-c3ccc(C#N)cc3)cncc21 (racemic) [Example 3, (rac)-N-[4-(4-Cyanophenyl)-5,6,7,8-tetrahydroisoquinolin-8-yl]-N′-propylsulfuric diamide]	291 nM	52 nM
CCNC(=O)NC1CCCc2c(-c3ccc(C#N)cc3)cncc21 (racemic) [Example 4, (rac)-1-(4-(4-Cyanophenyl)-5,6,7,8-tetrahydroisoquinolin-8-yl)-3-ethylurea]	2170 nM	220 nM
CCC(=O)NC1CCCc2c(-c3ccc(C#N)cc3)cncc21 (racemic) [Example 5, (rac)-N-(4-(4-Cyanophenyl)-5,6,7,8-tetrahydroisoquinolin-8-yl)propionamide]	760 nM	
CC(=O)NC1CCCc2c(-c3ccc(C#N)cc3)cncc21 (racemic) [Example 8, (rac)-N-(4-(4-Cyanophenyl)-5,6,7,8-tetrahydroisoquinolin-8-yl)acetamide]	422 nM	43 nM
CCOC(=O)NC1CCCc2c(-c3ccc(C#N)cc3)cncc21 (racemic) [Example 10, (rac)-Ethyl 4-(4-cyanophenyl)-5,6,7,8-tetrahydroisoquinolin-8-ylcarbamate]	658 nM	67 nM
N#Cc1ccc(-c2cncc3c2CCCC3O)cc1 (racemic) [Example 11, (rac)-4-(8-Hydroxy-5,6,7,8-tetrahydroisoquinolin-4-yl)benzonitrile]	31 nM	8 nM
CCNC(=O)OC1CCCc2c(-c3ccc(C#N)cc3)cncc21 (racemic) [Example 12, (rac)-4-(4-Cyanophenyl)-5,6,7,8-tetrahydroisoquinolin-8-yl ethylcarbamate]	30 nM	25 nM
COC1CCCc2c(-c3ccc(C#N)cc3)cncc21 (racemic) [Example 13, (rac)-4-(8-Methoxy-5,6,7,8-tetrahydroisoquinolin-4-yl)benzonitrile]	8 nM	10 nM
Cc1ccc(C2(O)CCCc3c(-c4ccc(C#N)cc4)cncc32)cc1C (racemic) [Example 14, (rac)-4-(8-(3,4-Dimethylphenyl)-8-hydroxy-5,6,7,8-tetrahydroisoquinolin-4-yl)benzonitrile]	73 nM	16 nM
CCC(=O)NC1CCc2c(-c3ccc(C#N)cc3)cncc21 (racemic) [Example 17, (rac)-N-(4-(4-Cyanophenyl)-6,7-dihydro-5H-cyclopenta[c]pyridin-7-yl)propionamide]	511 nM	22 nM
CCC(=O)NC1CCCc2c(-c3ccc(F)c(Cl)c3)cncc21 (racemic) [Example 20, (rac)-N-(4-(3-Chloro-4-fluorophenyl)-5,6,7,8-tetrahydroisoquinolin-8-yl)propionamide]	480 nM	24 nM
CCC(=O)NC1CCCc2c(-c3ccc(C(F)(F)F)cc3)cncc21 (racemic) [Example 21, (rac)-N-(4-(4-(Trifluoromethyl)phenyl)-5,6,7,8-tetrahydroisoquinolin-8-yl)propionamide]	7090 nM	82 nM
CCC(=O)NC1CCCc2c(-c3ccc(Cl)cc3)cncc21 (racemic) [Example 24, (rac)-N-(4-(4-Chlorophenyl)-5,6,7,8-tetrahydroisoquinolin-8-yl)propionamide]	1420 nM	31 nM
CCC(=O)NC1CCCc2c(-c3ccc(F)c(C)c3)cncc21 (racemic) [Example 27, (rac)-N-(4-(4-Fluoro-3-methylphenyl)-5,6,7,8-tetrahydroisoquinolin-8-yl)propionamide]	625 nM	14 nM

SMILES	EC50 [1]	EC50 [2]
CCC(=O)NC1CCCc2c(-c3ccc(Cl)cc3F)cncc21 (racemic) [Example 30, (rac)-N-(4-(4-Chloro-2-fluorophenyl)-5,6,7,8-tetrahydroisoquinolin-8-yl)propionamide]	1500 nM	28 nM
CCC(=O)NC1CCCc2c(-c3ccc(C(F)(F)F)cc3F)cncc21 (racemic) [Example 33, (rac)-N-(4-(2-Fluoro-4-(trifluoromethyl)phenyl)-5,6,7,8-tetrahydroisoquinolin-8-yl)propionamide]	14700 nM	159 nM
CCC(=O)NC1CCCc2c(-c3ccc(Cl)c(F)c3)cncc21 (racemic) [Example 36, (rac)-N-(4-(4-Chloro-3-fluorophenyl)-5,6,7,8-tetrahydroisoquinolin-8-yl)propionamide]	1010 nM	14 nM
CCC(=O)NC1CCCc2c(-c3ccc(C(F)(F)F)c(F)c3)cncc21 (racemic) [Example 39, (rac)-N-(4-(3-Fluoro-4-(trifluoromethyl)phenyl)-5,6,7,8-tetrahydroisoquinolin-8-yl)propionamide]	3240 nM	29 nM
CCC(=O)NC1CCCc2c(-c3ccc(F)cc3F)cncc21 (racemic) [Example 42, (rac)-N-(4-(2,4-Difluorophenyl)-5,6,7,8-tetrahydroisoquinolin-8-yl)propionamide]	2400 nM	109 nM
CCC(=O)NC1CCCc2c(-c3cc(F)c(F)cc3F)cncc21 (racemic) [Example 43, (rac)-N-(4-(2,4,5-Trifluorophenyl)-5,6,7,8-tetrahydroisoquinolin-8-yl)propionamide]	1150 nM	27 nM
CCC(=O)NC1CCCc2c(-c3ccc(C#N)cc3)cncc21 (single isomer, unassigned; (+)) [Example 7, (+)-(R or S)—N-(4-(4-Cyanophenyl)-5,6,7,8-tetrahydroisoquinolin-8-yl)propionamide]	263 nM	
C[C@@H](O)C(=O)NC1CCCc2c(-c3ccc(C(F)(F)F)cc3)cncc21 (single isomer, unassigned; (+)) [Example 47, (+)-(R)-2-Hydroxy-N—[(R or S)-4-(4-trifluoromethyl-phenyl)-5,6,7,8-tetrahydro-isoquinolin-8-yl]-propionamide]		5750 nM
CCC(=O)NC1CCCc2c(-c3ccc(C#N)cc3)cncc21 (single isomer, unassigned; (-)) [Example 6, (−)-(S or R)—N-(4-(4-Cyanophenyl)-5,6,7,8-tetrahydroisoquinolin-8-yl)propionamide]	11700 nM	
CCC(=O)NC1CCCc2c(-c3ccc(C(F)(F)F)cc3)cncc21 (single isomer, unassigned; (-)) [Example 22, (−)-(S or R)—N-(4-(4-(Trifluoromethyl)phenyl)-5,6,7,8-tetrahydroisoquinolin-8-yl)propionamide]		6380 nM
CCC(=O)NC1CCCc2c(-c3ccc(Cl)cc3F)cncc21 (single isomer, unassigned; (-)) [Example 31, (−)-(S or R)—N-(4-(4-Chloro-2-fluorophenyl)-5,6,7,8-tetrahydroisoquinolin-8-yl)propionamide]		1220 nM
CCC(=O)NC1CCc2c(-c3ccc(C(F)(F)F)cc3)cncc21 (single isomer, unassigned; (-)) [Example 50, (−)-(S or R)—N-(4-(4-(Trifluoromethyl)phenyl)-6,7-dihydro-5H-cyclopenta[c]pyridin-7-yl)propionamide]		5770 nM
C[C@@H](O)C(=O)NC1CCc2c(-c3ccc(C(F)(F)F)cc3)cncc21 (single isomer, unassigned; (-)) [Example 53, (−)-(R)-2-Hydroxy-N—((S or R)-4-(4-(trifluoromethyl)phenyl)-6,7-dihydro-5H-cyclopenta[c]pyridin-7-yl)propanamide]		9100 nM
CCC(=O)NC1CCc2c(-c3ccc(F)c(C)c3)cncc21 (single isomer, unassigned; (-)) [Example 59, (−)-(S or R)—N-(4-(4-Fluoro-3-methylphenyl)-6,7-dihydro-5H-cyclopenta[c]pyridin-7-yl)propionamide]		1660 nM
CCS(=O)(=O)NC1CCc2c(-c3ccc(C(F)(F)F)c(F)c3)cncc21 (single isomer, unassigned; (-)) [Example 72, (−)-(S or R)—N-(4-(3-Fluoro-4-(trifluoromethyl)phenyl)-6,7-dihydro-5H-cyclopenta[c]pyridin-7-yl)ethanesulfonamide]		16500 nM
